Laboratory results from publication PMC9219689, “The Antioxidant Cyclic 3-Hydroxymelatonin Promotes the Growth and Flowering of Arabidopsis thaliana” (Antioxidants, 2022).

T1: AtM3H (Arabidopsis thaliana melatonin 3-hydroxylase) (Arabidopsis thaliana, UniProt Q39224)
T1 construct: gene SRG1; full length, 358 residues; N-terminal hexahistidine tag (pET300), removal not mentioned; E. coli BL21(DE3), Ni-NTA purified
T1 sequence (Q39224 1-358): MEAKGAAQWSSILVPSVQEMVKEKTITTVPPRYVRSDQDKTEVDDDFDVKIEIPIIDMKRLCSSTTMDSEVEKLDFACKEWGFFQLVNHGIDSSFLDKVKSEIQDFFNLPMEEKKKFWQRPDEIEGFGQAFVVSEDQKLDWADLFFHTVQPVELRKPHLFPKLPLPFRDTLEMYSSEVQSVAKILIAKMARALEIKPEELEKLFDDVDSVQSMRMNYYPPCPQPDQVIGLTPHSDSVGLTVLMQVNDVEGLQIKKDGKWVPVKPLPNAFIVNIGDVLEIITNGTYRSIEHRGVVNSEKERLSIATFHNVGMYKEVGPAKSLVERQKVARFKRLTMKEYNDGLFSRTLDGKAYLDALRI


Columns and labels:
[1] = target: T1, AtM3H (Arabidopsis thaliana melatonin 3-hydroxylase); assay: HPLC with fluorescence detection of 3-OHM; inhibition of M3H activity; type: biochemical
purified protein = substrate: COc1ccc2[nH]cc(CCNC(C)=O)c2c1; assay: purified protein; settings: co-substrate α-ketoglutarate (160 µM in standard assay), FeSO4 100 µM, ascorbate 1 mM, catalase, optimum conditions (pH 7.3, 30 °C; Methods list Tris/HCl pH 8.0)

| inhibition at 500 µM [1] [%] | Molecule | Km (purified protein) [µM] |
| --- | --- | --- |
| 50 | CCC(=O)C1C(=O)CC(C(=O)O)CC1=O (centres unmarked) [Prohexadione-Ca] |  |
|  | AtM3H (Arabidopsis thaliana melatonin 3-hydroxylase) (Arabidopsis thaliana) (protein) MEAKGAAQWSSILVPSVQEMVKEKTITTVPPRYVRSDQDKTEVDDDFDVKIEIPIIDMKRLCSSTTMDSEVEKLDFACKEWGFFQLVNHGIDSSFLDKVKSEIQDFFNLPMEEKKKFWQRPDEIEGFGQAFVVSEDQKLDWADLFFHTVQPVELRKPHLFPKLPLPFRDTLEMYSSEVQSVAKILIAKMARALEIKPEELEKLFDDVDSVQSMRMNYYPPCPQPDQVIGLTPHSDSVGLTVLMQVNDVEGLQIKKDGKWVPVKPLPNAFIVNIGDVLEIITNGTYRSIEHRGVVNSEKERLSIATFHNVGMYKEVGPAKSLVERQKVARFKRLTMKEYNDGLFSRTLDGKAYLDALRI | 100 |
